# Results from patent US20150119394A1, “Insulin-Like Growth Factor-1 Receptor Inhibitors” (Merck Sharp & Dohme Corp., priority 2012, published 2015).
# pIC50: −log10 of the molar value.
# Biological target: T1, intracellular kinase domain of human IGF-1R (GST fusion protein) (Homo sapiens, UniProt P08069)
# T1 construct: IGFRK and IRK enzyme used for the assay was intracellular kinase domain of human IGF-1R; GST; made in house
# Experiment: In vitro IGF-1R kinase assay (HTRF)
# Type: biochemical
# Conditions: ATP 20 μM, IGFRK 0.25 nM
# Procedure: The in vitro kinase assays using IGF-1R and IR kinase GST fusion proteins were conducted using a homogeneous time-resolved fluorescence (HTRF) format. Kinase reactions were carried out in a 384-well plate format in a final volume of 20 μL. The standard enzyme reaction buffer consisted of 50 mM Tris HCL (pH: 7.4), 1 mM EGTA, 10 mM MgCl2, 2 mM DTT, 0.01% Tween-20, IGF-1R/IR kinase enzyme, poly GT peptide substrate (Perkin Elmer [Ulight Glu-Tyr (4:1)]n) and ATP [concentration equivalent to Kmapp] […] Briefly, 2.5 μL enzyme and 2.5 μL inhibitor was preincubated for 10 minutes at 23° C. followed by the addition of 2.5 μL of poly GT substrate (final concentration of 50 nM). Reaction was initiated with the addition of 2.5 μL of ATP (final concentration of 20 μM for IGF-1R assay and 10 μM for IR assay). After 1 hour incubation at 23° C., the kinase reaction was stopped with the addition of 5 μL EDTA (final concentration of 10 mM in 20 μL). Europium cryptate—labeled antiphosphotyrosine antibody PY20 (5 μL) was added (final concentration of 2 nM) and the mixture was allowed to equilibrate for 1 hour at 23° C. followed by reading the plate in an Envision plate reader.
# The intensity of light emission at 665 nm was directly proportional to the level of substrate phosphorylation. The IC50 values for inhibitors were determined by a four-parameter sigmoidal curve fit (Sigma plot or Graph pad).
# IGFRK and IRK enzyme used for the assay was intracellular kinase domain of human IGF-1R and human IR cloned and expressed as GST fusion proteins using the baculovirus expression system and purified using glutathione—Sepharose column.
# T1 sequence (P08069 999-1274 limits assumed): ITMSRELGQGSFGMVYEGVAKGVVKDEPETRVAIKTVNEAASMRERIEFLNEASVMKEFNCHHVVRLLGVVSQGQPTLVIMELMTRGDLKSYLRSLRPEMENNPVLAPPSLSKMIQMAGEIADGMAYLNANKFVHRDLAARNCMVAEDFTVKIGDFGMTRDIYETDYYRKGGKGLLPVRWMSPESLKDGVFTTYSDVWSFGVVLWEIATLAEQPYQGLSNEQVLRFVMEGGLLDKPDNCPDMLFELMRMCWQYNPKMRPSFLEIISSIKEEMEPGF
row,pIC50,Compound
1,8.40,"NC(=O)c1[nH]c2ccc(Cl)cc2c1S(=O)(=O)N1CCO[C@H](COc2ccc(-c3cncnc3)cc2)C1 [Compound 48, (S)-5-chloro-3-((2-((4-(pyrimidin-5-yl)phenoxy)methyl)morpholino)sulfonyl)-1H-indole-2-carboxamide]"
2,8.30,"NC(=O)c1[nH]c2ccc(Cl)cc2c1S(=O)(=O)N1CCO[C@H](COc2ccc(-c3cccnc3F)cc2)C1 [Compound 49, (S)-5-chloro-3-((2-((4-(2-fluoropyridin-3-yl)phenoxy)methyl)morpholino)sulfonyl)-1H-indole-2-carboxamide]"
3,8.49,"Cc1ncccc1-c1ccc(OC[C@@H]2CN(S(=O)(=O)c3c(C(N)=O)[nH]c4ccc(Cl)cc34)CCO2)cc1 [Compound 50, (S)-5-chloro-3-((2-((4-(2-methylpyridin-3-yl)phenoxy)methyl)morpholino)sulfonyl)-1H-indole-2-carboxamide]"
4,< 7.00,"Cc1ccc(-c2ccc(OC[C@@H]3CN(S(=O)(=O)c4c(C(N)=O)[nH]c5ccc(Cl)cc45)CCO3)cc2)cn1 [Compound 52, (S)-5-chloro-3-((2-((4-(6-methylpyridin-3-yl)phenoxy)methyl)morpholino)sulfonyl)-1H-indole-2-carboxamide]"
5,< 6.00,"NC(=O)c1[nH]c2ccc(Cl)cc2c1S(=O)(=O)N1CCO[C@H](COc2ccccc2-c2ccccc2)C1 [Compound 54, (S)-3-((2-(([1,1′-biphenyl]-2-yloxy)methyl)morpholino)sulfonyl)-5-chloro-1H-indole-2-carboxamide]"
6,< 6.00,"NC(=O)c1[nH]c2ccc(Cl)cc2c1S(=O)(=O)N1CCO[C@H](COc2ccccc2-c2cccnc2)C1 [Compound 55, (S)-5-chloro-3-((2-((2-(pyridin-3-yl)phenoxy)methyl)morpholino)sulfonyl)-1H-indole-2-carboxamide]"
7,< 6.00,"NC(=O)c1[nH]c2ccc(Cl)cc2c1S(=O)(=O)N1CCO[C@H](COc2ccccc2-c2ccncc2)C1 [Compound 56, (S)-5-chloro-3-((2-((2-(pyridin-4-yl)phenoxy)methyl)morpholino)sulfonyl)-1H-indole-2-carboxamide]"
8,< 6.00,"NC(=O)c1[nH]c2ccc(Cl)cc2c1S(=O)(=O)N1CCO[C@H](COc2ccccc2-c2cccnc2F)C1 [Compound 57, (S)-5-chloro-3-((2-((2-(2-fluoropyridin-3-yl)phenoxy)methyl)morpholino)sulfonyl)-1H-indole-2-carboxamide]"
9,< 6.00,"COc1ccccc1-c1ccccc1OC[C@@H]1CN(S(=O)(=O)c2c(C(N)=O)[nH]c3ccc(Cl)cc23)CCO1 [Compound 58, (S)-5-chloro-3-((2-(((2′-methoxy-[1,1′-biphenyl]-2-yl)oxy)methyl)morpholino)sulfonyl)-1H-indole-2-carboxamide]"
10,< 6.00,"NC(=O)c1[nH]c2ccc(Cl)cc2c1S(=O)(=O)N1CCO[C@H](COc2ccccc2-c2ccc(F)nc2)C1 [Compound 59, (S)-5-chloro-3-((2-((2-(6-fluoropyridin-3-yl)phenoxy)methyl)morpholino)sulfonyl)-1H-indole-2-carboxamide]"
11,< 6.00,"NC(=O)c1[nH]c2ccc(Cl)cc2c1S(=O)(=O)N1CCO[C@H](COc2ccccc2-c2cncnc2)C1 [Compound 60, (S)-5-chloro-3-((2-((2-(pyrimidin-5-yl)phenoxy)methyl)morpholino)sulfonyl)-1H-indole-2-carboxamide]"

# More lines, now with the values behind:
row,Compound,pIC50
1,"COc1ccccc1-c1ccc(OC[C@@H]2CN(S(=O)(=O)c3c(C(N)=O)[nH]c4ccc(Cl)cc34)CCO2)cc1 [Compound 36, (S)-5-chloro-3-((2-(((2′-methoxy-[1,1′-biphenyl]-4-yl)oxy)methyl)morpholino)sulfonyl)-1H-indole-2-carboxamide]",7.09
2,"COc1ccc(-c2ccc(OC[C@@H]3CN(S(=O)(=O)c4c(C(N)=O)[nH]c5ccc(Cl)cc45)CCO3)cc2)cn1 [Compound 37, (S)-5-chloro-3-((2-((4-(6-methoxypyridin-3-yl)phenoxy)methyl)morpholino)sulfonyl)-1H-indole-2-carboxamide]",6.78
3,"NC(=O)c1[nH]c2ccc(Cl)cc2c1S(=O)(=O)N1CCO[C@H](COc2ccc(-c3ccccc3C(F)(F)F)cc2)C1 [Compound 38, (S)-5-chloro-3-((2-(((2′-(trifluoromethyl)-[1,1′-biphenyl]-4-yl)oxy)methyl)morpholino)sulfonyl)-1H-indole-2-carboxamide]",6.95
4,"COc1ccc(-c2ccc(OC[C@@H]3CN(S(=O)(=O)c4c(C(N)=O)[nH]c5ccc(Cl)cc45)CCO3)cc2)cc1 [Compound 39, (S)-5-chloro-3-((2-(((4′-methoxy-[1,1′-biphenyl]-4-yl)oxy)methyl)morpholino)sulfonyl)-1H-indole-2-carboxamide]",6.69
5,"NC(=O)c1[nH]c2ccc(Cl)cc2c1S(=O)(=O)N1CCO[C@H](COc2ccc(-c3ccccc3OC(F)(F)F)cc2)C1 [Compound 40, (S)-5-chloro-3-((2-(((2′-(trifluoromethoxy)-[1,1′-biphenyl]-4-yl)oxy)methyl)morpholino)sulfonyl)-1H-indole-2-carboxamide]",6.44
6,"Cc1ccccc1-c1ccc(OC[C@@H]2CN(S(=O)(=O)c3c(C(N)=O)[nH]c4ccc(Cl)cc34)CCO2)cc1 [Compound 41, (S)-5-chloro-3-((2-(((2′-methyl-[1,1′-biphenyl]-4-yl)oxy)methyl)morpholino)sulfonyl)-1H-indole-2-carboxamide]",6.74
7,"NC(=O)c1[nH]c2ccc(Cl)cc2c1S(=O)(=O)N1CCO[C@H](COc2ccc(-c3ccccc3F)cc2)C1 [Compound 42, (S)-5-chloro-3-((2-(((2′-fluoro-[1,1′-biphenyl]-4-yl)oxy)methyl)morpholino)sulfonyl)-1H-indole-2-carboxamide]",6.92
8,"COc1ccccc1-c1ccc(OC[C@@H]2CN(S(=O)(=O)c3c(C(N)=O)[nH]c4ccc(Cl)cc34)CCO2)cc1 [Compound 43, (S)-5-chloro-3-((2-(((2′-methoxy-[1,1′-biphenyl]-4-yl)oxy)methyl)morpholino)sulfonyl)-1H-indole-2-carboxamide]",< 7.00
9,"COc1ncccc1-c1ccc(OC[C@@H]2CN(S(=O)(=O)c3c(C(N)=O)[nH]c4ccc(Cl)cc34)CCO2)cc1 [Compound 44, (S)-5-chloro-3-((2-((4-(2-methoxypyridin-3-yl)phenoxy)methyl)morpholino)sulfonyl)-1H-indole-2-carboxamide]",7.33
10,"NC(=O)c1[nH]c2ccc(Cl)cc2c1S(=O)(=O)N1CCO[C@H](COc2ccc(-c3ccnc(F)c3)cc2)C1 [Compound 45, (S)-5-chloro-3-((2-((4-(2-fluoropyridin-4-yl)phenoxy)methyl)morpholino)sulfonyl)-1H-indole-2-carboxamide]",7.92
11,"NC(=O)c1[nH]c2ccc(Cl)cc2c1S(=O)(=O)N1CCO[C@H](COc2ccc(-c3ccc(F)nc3)cc2)C1 [Compound 46, (S)-5-chloro-3-((2-((4-(6-fluoropyridin-3-yl)phenoxy)methyl)morpholino)sulfonyl)-1H-indole-2-carboxamide]",7.89
12,"COc1cc(-c2ccc(OC[C@@H]3CN(S(=O)(=O)c4c(C(N)=O)[nH]c5ccc(Cl)cc45)CCO3)cc2)ccn1 [Compound 47, (S)-5-chloro-3-((2-((4-(2-methoxypyridin-4-yl)phenoxy)methyl)morpholino)sulfonyl)-1H-indole-2-carboxamide]",> 7.00
